Reference: patent publication US11053204B2, “Pyrimidinyloxy benzene derivatives as herbicides” (FMC Corporation, priority 2015, dated 2021)

What was measured:
Format in all cases: in vivo
[1] = tested on: giant foxtail (Setaria faberii); test: Test A preemergence, visual injury rating; conditions: for Plant response rating, Foxtail, Giant: 31 g ai/ha, 0 to 100 scale, 0 no effect, 100 complete control; for Foxtail, Giant plant response rating: 125 g ai/ha, 0 to 100 scale (0 no effect, 100 complete control)
Summary of the method: (§1)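 Injury scores run from 0, no effect, to 100, complete control, judged by eye against untreated plants roughly 10 days after treatment. Chemicals carried a surfactant in a non-phytotoxic solvent and went onto loam–sand soil preemergence or onto one- to two-leaf seedlings postemergence.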

kochia (Kochia scoparia) [2] = test: Test A preemergence, visual injury rating; conditions: for Plant response rating, Kochia: 31 g ai/ha, 0 to 100 scale, 0 no effect, 100 complete control; for Kochia plant response rating: 125 g ai/ha, 0 to 100 scale (0 no effect, 100 complete control)
Summary of the method: as §1

[3] = tested on: pigweed (Amaranthus retroflexus); test: Test A preemergence, visual injury rating; conditions: for Plant response rating, Pigweed: 31 g ai/ha, 0 to 100 scale, 0 no effect, 100 complete control; for Pigweed plant response rating: 125 g ai/ha, 0 to 100 scale (0 no effect, 100 complete control)
Summary of the method: as §1

[4] = tested on: barnyardgrass (Echinochloa crus-galli); test: Test A preemergence, visual injury rating; conditions: for Plant response rating, Barnyardgrass: 31 g ai/ha, 0 to 100 scale, 0 no effect, 100 complete control; for Barnyardgrass plant response rating: 125 g ai/ha, 0 to 100 scale (0 no effect, 100 complete control)
Summary of the method: as §1

[5] = tested on: ragweed (common ragweed, Ambrosia elatior); test: Test A preemergence, visual injury rating; conditions: for Plant response rating, Ragweed: 31 g ai/ha, 0 to 100 scale, 0 no effect, 100 complete control; for Ragweed plant response rating: 125 g ai/ha, 0 to 100 scale (0 no effect, 100 complete control)
Summary of the method: as §1

[6] = tested on: Italian ryegrass (Lolium multiflorum); test: Test A preemergence, visual injury rating; conditions: for Plant response rating, Ryegrass, Italian: 31 g ai/ha, 0 to 100 scale, 0 no effect, 100 complete control; for Ryegrass, Italian plant response rating: 125 g ai/ha, 0 to 100 scale (0 no effect, 100 complete control)
Summary of the method: as §1

[7] = tested on: oat, wild (wild oat Avena fatua); test: Test C postemergence, plant response rating; conditions: for Oat, Wild plant response rating: scale 0 to 100 (0 no effect, 100 complete control)
Summary of the method: (§2)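 After sowing in loam–sand blend or silt loam, pots were sprayed preemergence; separately grown 1- to 4-leaf plants were sprayed postemergence. Following 13 to 15 d under greenhouse conditions, injury was rated visually on a 0 to 100 scale.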

kochia (Kochia scoparia) [8] = test: Test C postemergence, plant response rating; conditions: for Kochia plant response rating: scale 0 to 100 (0 no effect, 100 complete control)
Summary of the method: as §2

[9] = tested on: ragweed (common ragweed, Ambrosia elatior); test: Test C postemergence, plant response rating; conditions: for Ragweed plant response rating: scale 0 to 100 (0 no effect, 100 complete control)
Summary of the method: as §2

[10] = tested on: morningglory (Ipomoea coccinea); test: Test C postemergence, plant response rating; conditions: for Morningglory plant response rating: scale 0 to 100 (0 no effect, 100 complete control)
Summary of the method: as §2

[11] = tested on: velvetleaf (Abutilon theophrasti); test: Test C postemergence, plant response rating; conditions: for Velvetleaf plant response rating: 125 g ai/ha, scale 0 to 100 (0 no effect, 100 complete control)
Summary of the method: as §2

[12] = tested on: nutsedge, yellow (yellow nutsedge, Cyperus esculentus); test: Test C postemergence, plant response rating; conditions: for Nutsedge, Yellow plant response rating: scale 0 to 100 (0 no effect, 100 complete control)
Summary of the method: as §2

[13] = tested on: lambsquarters (Chenopodium album); test: Test C postemergence, plant response rating; conditions: for Lambsquarters plant response rating: scale 0 to 100 (0 no effect, 100 complete control)
Summary of the method: as §2

corn (Zea mays) = test: Test C postemergence, plant response rating; conditions: for Corn plant response rating: scale 0 to 100 (0 no effect, 100 complete control)
Summary of the method: as §2

[14] = tested on: crabgrass, large (large crabgrass, Digitaria sanguinalis); test: Test C postemergence, plant response rating; conditions: for Crabgrass, Large plant response rating: scale 0 to 100 (0 no effect, 100 complete control)
Summary of the method: as §2

[15] = tested on: ducksalad (Heteranthera limosa); test: Test B flooded paddy test, plant response rating; conditions: 250 g ai/ha; Flood; scale of 0 to 100 where 0 is no effect and 100 is complete control; 13 to 15 days
Summary of the method: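 Flooded 3 cm over soil; compound into paddy water; depth kept constant. Greenhouse 13–15 d.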

N#Cc1cccc(Oc2ncc(Cl)cn2)c1COCCC(F)(F)F [Compound 80]
Plant response rating, Foxtail, Giant [1]: 90
Foxtail, Giant plant response rating [1]: 100
Plant response rating, Kochia (kochia (Kochia scoparia) [2]): 100
Kochia plant response rating (kochia (Kochia scoparia) [2]): 100
Plant response rating, Pigweed [3]: 100
Pigweed plant response rating [3]: 100
Plant response rating, Barnyardgrass [4]: 60
Barnyardgrass plant response rating [4]: 100
Plant response rating, Ragweed [5]: 0
Ragweed plant response rating [5]: 20
Plant response rating, Ryegrass, Italian [6]: 0
Ryegrass, Italian plant response rating [6]: 50
Plant response rating, Oat, Wild ([7]; 16 g ai/ha, scale of 0 to 100): 0
Plant response rating, Oat, Wild ([7]; 31 g ai/ha, scale 0 to 100): 0
Oat, Wild plant response rating ([7]; 62 g ai/ha): 10
Oat, Wild plant response rating ([7]; 125 g ai/ha): 5
Plant response rating, Kochia (kochia (Kochia scoparia) [8]; 16 g ai/ha, scale of 0 to 100): 55
Plant response rating, Kochia (kochia (Kochia scoparia) [8]; 31 g ai/ha, scale 0 to 100): 75
Kochia plant response rating (kochia (Kochia scoparia) [8]; 62 g ai/ha): 80
Kochia plant response rating (kochia (Kochia scoparia) [8]; 125 g ai/ha): 80
Plant response rating, Ragweed ([9]; 16 g ai/ha, scale of 0 to 100): 5
Plant response rating, Ragweed ([9]; 31 g ai/ha, scale 0 to 100): 10
Ragweed plant response rating ([9]; 62 g ai/ha): 15
Ragweed plant response rating ([9]; 125 g ai/ha): 35
Plant response rating, Morningglory ([10]; 16 g ai/ha, scale of 0 to 100): 25
Plant response rating, Morningglory ([10]; 31 g ai/ha, scale 0 to 100): 35
Morningglory plant response rating ([10]; 62 g ai/ha): 55
Morningglory plant response rating ([10]; 125 g ai/ha): 60
Plant response rating, Velvetleaf ([11]; 16 g ai/ha, scale of 0 to 100): 30
Plant response rating, Velvetleaf ([11]; 31 g ai/ha, scale 0 to 100): 35
Velvetleaf plant response rating [11]: 55
Plant response rating, Nutsedge, Yellow ([12]; 16 g ai/ha, scale of 0 to 100): 0
Plant response rating, Nutsedge, Yellow ([12]; 31 g ai/ha, scale 0 to 100): 0
Nutsedge, Yellow plant response rating ([12]; 62 g ai/ha): 5
Nutsedge, Yellow plant response rating ([12]; 125 g ai/ha): 5
Plant response rating, Lambsquarters ([13]; 16 g ai/ha, scale of 0 to 100): 50
Plant response rating, Lambsquarters ([13]; 31 g ai/ha, scale 0 to 100): 75
Lambsquarters plant response rating ([13]; 62 g ai/ha): 80
Lambsquarters plant response rating ([13]; 125 g ai/ha): 85
Plant response rating, Corn (corn (Zea mays); 16 g ai/ha, scale of 0 to 100): 15
Plant response rating, Corn (corn (Zea mays); 31 g ai/ha, scale 0 to 100): 10
Corn plant response rating (corn (Zea mays); 62 g ai/ha): 15
Corn plant response rating (corn (Zea mays); 125 g ai/ha): 25
Plant response rating, Crabgrass, Large ([14]; 16 g ai/ha, scale of 0 to 100): 10
Plant response rating, Crabgrass, Large ([14]; 31 g ai/ha, scale 0 to 100): 15
Crabgrass, Large plant response rating ([14]; 62 g ai/ha): 10
Crabgrass, Large plant response rating ([14]; 125 g ai/ha): 30
Plant response rating, Ducksalad [15]: 100

FC(F)(F)CCCc1c(Br)cccc1Oc1ncc(Cl)cn1 [Compound 89]
Plant response rating, Foxtail, Giant [1]: 10
Foxtail, Giant plant response rating [1]: 50
Plant response rating, Kochia (kochia (Kochia scoparia) [2]): 10
Kochia plant response rating (kochia (Kochia scoparia) [2]): 50
Plant response rating, Pigweed [3]: 10
Pigweed plant response rating [3]: 100
Plant response rating, Barnyardgrass [4]: 20
Barnyardgrass plant response rating [4]: 90
Plant response rating, Ragweed [5]: 0
Ragweed plant response rating [5]: 0
Plant response rating, Ryegrass, Italian [6]: 0
Ryegrass, Italian plant response rating [6]: 20
Plant response rating, Oat, Wild ([7]; 16 g ai/ha, scale of 0 to 100): 15
Plant response rating, Oat, Wild ([7]; 31 g ai/ha, scale 0 to 100): 10
Oat, Wild plant response rating ([7]; 62 g ai/ha): 40
Oat, Wild plant response rating ([7]; 125 g ai/ha): 30
Plant response rating, Kochia (kochia (Kochia scoparia) [8]; 16 g ai/ha, scale of 0 to 100): 70
Plant response rating, Kochia (kochia (Kochia scoparia) [8]; 31 g ai/ha, scale 0 to 100): 75
Kochia plant response rating (kochia (Kochia scoparia) [8]; 62 g ai/ha): 80
Kochia plant response rating (kochia (Kochia scoparia) [8]; 125 g ai/ha): 95
Plant response rating, Ragweed ([9]; 16 g ai/ha, scale of 0 to 100): 0
Plant response rating, Ragweed ([9]; 31 g ai/ha, scale 0 to 100): 5
Ragweed plant response rating ([9]; 62 g ai/ha): 10
Ragweed plant response rating ([9]; 125 g ai/ha): 25
Plant response rating, Morningglory ([10]; 16 g ai/ha, scale of 0 to 100): 5
Plant response rating, Morningglory ([10]; 31 g ai/ha, scale 0 to 100): 15
Morningglory plant response rating ([10]; 62 g ai/ha): 25
Morningglory plant response rating ([10]; 125 g ai/ha): 55
Plant response rating, Velvetleaf ([11]; 16 g ai/ha, scale of 0 to 100): 20
Plant response rating, Velvetleaf ([11]; 31 g ai/ha, scale 0 to 100): 35
Velvetleaf plant response rating [11]: 70
Plant response rating, Nutsedge, Yellow ([12]; 16 g ai/ha, scale of 0 to 100): 0
Plant response rating, Nutsedge, Yellow ([12]; 31 g ai/ha, scale 0 to 100): 0
Nutsedge, Yellow plant response rating ([12]; 62 g ai/ha): 0
Nutsedge, Yellow plant response rating ([12]; 125 g ai/ha): 5
Plant response rating, Lambsquarters ([13]; 16 g ai/ha, scale of 0 to 100): 70
Plant response rating, Lambsquarters ([13]; 31 g ai/ha, scale 0 to 100): 75
Lambsquarters plant response rating ([13]; 62 g ai/ha): 100
Lambsquarters plant response rating ([13]; 125 g ai/ha): 100
Plant response rating, Corn (corn (Zea mays); 16 g ai/ha, scale of 0 to 100): 15
Plant response rating, Corn (corn (Zea mays); 31 g ai/ha, scale 0 to 100): 15
Corn plant response rating (corn (Zea mays); 62 g ai/ha): 15
Corn plant response rating (corn (Zea mays); 125 g ai/ha): 20
Plant response rating, Crabgrass, Large ([14]; 16 g ai/ha, scale of 0 to 100): 55
Plant response rating, Crabgrass, Large ([14]; 31 g ai/ha, scale 0 to 100): 60
Crabgrass, Large plant response rating ([14]; 62 g ai/ha): 85
Crabgrass, Large plant response rating ([14]; 125 g ai/ha): 90
Plant response rating, Ducksalad [15]: 95
